One assay concerns MCF7 cells. Description: MCF7 proliferation in response to E2 or insulin. The class given is cell-based. The conditions noted are these: SERMs and SERDs 10^-6 M, insulin 2×10^-9 M. On the procedure: The expression of ESR1 target genes responsive to (FIG. 10A) agonists, (FIG. 10B) primarily SERMs, or (FIG. 10C) SERMs and agonists was analyzed as in FIG. 5. Relative changes of these and additional target genes designed to evaluate dose dependent response to RAD1901 are presented in FIG. 11. Significant target gene regulation (*p<0.05) as compared to the vehicle control was detected by 2 way ANOVA followed by Fisher's LSD (Graphpad Prism 6). […] Triplicate wells of SKBR3 cells were transfected with plasmids expressing ESR1 fused to VP16 together with Gal4DBD alone (control) or Gal4DBD fused to ESR1 interacting peptides noted on the horizontal axis. Cells were then treated with the indicated ESR1 ligands (10^−7 M unless otherwise indicated). Interaction of ESR1 with the Gal4DBD peptide constructs was detected through activation of a Gal4-responsive luciferase reporter construct and was normalized to detected β-galactosidase activity expressed in a constitutive manner using a second vector. Normalized response was expressed as fold increase over the detected level of interaction between Gal4DBD alone and ESR1-VP16 in the absence of ligand (Veh). For FIG. 10E, the effect of SERMs and SERDs (10^−6 M) on the proliferation of MCF7 cells in response to E2 (10^−9 M) or insulin (2×10^−9 M) was evaluated as in FIG. 5. Statistically similar treatments (2-way ANOVA followed by Bonferroni comparison) are indicated by letters. […] The expression of ESR1 target genes responsive to (A) agonists, (B) primarily SERMs, or (C) SERMs and agonists was analyzed using RT qPCR following RNA isolation. mRNA expression was normalized (ΔΔCT analysis) to the similarly detected 36B4 housekeeping. The profiles presented in dendogram format were analyzed with the Ward hierarchical clustering algorithm (JMP 11) using standardized data.

Another assay relates to LTED MCF7 cells. Briefly: LTED MCF7 cell proliferation assay. The class given is cell-based. The conditions noted are these: model of aromatase resistance, 10^-11-10^-6 M, 8 day assay.
A further assay addresses T1, ESR1 (Homo sapiens, UniProt P03372).
T1 sequence (P03372 1-595): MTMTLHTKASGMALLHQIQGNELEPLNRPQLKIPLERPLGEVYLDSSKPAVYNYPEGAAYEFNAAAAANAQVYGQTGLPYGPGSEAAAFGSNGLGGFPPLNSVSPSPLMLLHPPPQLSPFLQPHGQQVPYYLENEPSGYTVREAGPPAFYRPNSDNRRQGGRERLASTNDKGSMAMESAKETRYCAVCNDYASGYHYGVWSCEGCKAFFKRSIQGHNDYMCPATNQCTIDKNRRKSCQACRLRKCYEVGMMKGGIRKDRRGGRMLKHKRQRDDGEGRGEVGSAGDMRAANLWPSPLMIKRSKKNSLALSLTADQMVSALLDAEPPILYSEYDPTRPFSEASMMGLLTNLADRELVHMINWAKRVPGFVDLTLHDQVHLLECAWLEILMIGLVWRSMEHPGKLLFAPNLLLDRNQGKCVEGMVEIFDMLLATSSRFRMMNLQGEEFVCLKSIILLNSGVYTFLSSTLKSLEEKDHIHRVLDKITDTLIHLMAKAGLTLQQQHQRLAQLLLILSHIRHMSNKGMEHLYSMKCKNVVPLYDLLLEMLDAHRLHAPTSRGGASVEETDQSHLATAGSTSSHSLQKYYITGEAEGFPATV
Description: ESR1 expression in LTED MCF7 cells (immunoblot). As to conditions: 24 hours, SERDs 10^-6 M. The class given is cell-based. As for the experimental part:
MCF7 and SKBR3 cell lines were maintained in DMEM/F12 or RPMI media (Invitrogen), respectively, supplemented with 8% fetal bovine serum (FBS, Gemini), non-essential amino acids (Invitrogen), and sodium pyruvate (Invitrogen). Unless otherwise indicated, cells were plated for experiments in media lacking phenol red and supplemented with 8% charcoal stripped FBS (CFS, Gemini). LTED MCF7 cells were maintained and plated for experiments in phenol red free DMEM/F12 media supplemented with 8% CFS that had been charcoal stripped twice. 48 hours after plating, cells were treated with ESR1 ligands as indicated, and were harvested for immunoblot or real time quantitative PCR analysis 24 hours after treatment.
Expression of ESR1 and loading control cytokeratin 18 (CK18—FIG. 7A) in whole cell extracts were detected by immunoblot (top). ESR1 levels relative to CK18 were quantitated by densitometry using Adobe Photoshop (bottom). […] ESR1 expression was detected as in FIG. 6A. For FIGS. 6C-6D, LTED MCF7 cells were plated in phenol red free media supplemented with FBS that was stripped of growth factors twice using charcoal. For FIG. 6C, after 48 hours, cells were treated for 24 hours with E2 (10^−7 M) or SERDs (10^−6 M) and ESR1 was analyzed as in FIG. 6A.
(A western blot detects proteins with antibodies after separation by electrophoresis.)

The test system of a further assay is MCF7 xenograft tumors. Briefly: MCF7 xenograft tumor study in estrogen-treated ovariectomized nu/nu mice. As to conditions: 20 mg/kg sc daily. The class given is in vivo. On the procedure: A total of 90 female Nu/Nu mice were ovariectomized and implanted subcutaneous simultaneously with an estrogen pellet (Innovative Research of America) releasing 0.72 mg estradiol (E2) over 60 days. 2 days later an approximately 6 mm^3 fragment of an MCF7 xenograft tumor (isolated from a recently sacrificed estrogen treated nu/nu mouse) was inserted subcutaneous into the axial mammary gland. Tumor growth (by caliper measurement) and animal body weight were monitored 3× weekly until tumor volume reached ˜0.2 cm^3. […] Treatments were formulated in sterile corn oil and were administered daily by subcutaneous injection. After 3 weeks of treatments, animals were euthanized and serum and tissues saved for analysis. FIG. 1B depicts tumor volume analyzed using non-linear curve fit and exponential growth calculation (Graphpad Prism), followed by two-way ANOVA and Bonferroni analysis.
Xenograft tumor analysis: Estrogen-stimulated MCF7 tumors were initiated in the axial mammary gland of 6-week old estrogen-treated (0.72 mg/60 days pellet sc, Innovative Research of America) ovariectomized female NU/NU mice (in-house colony) by serial transfer and were measured as described (Wardell et al., (2013) Clin Cancer Res 19 (9):2420-2431). […] Animal tissues were processed and analyzed as described (Wardell et al., (2013) Clin Cancer Res 19 (9):2420-2431).
The ability of RAD1901 (FIG. 5A) to modulate the […] estradiol (E2) dependent transcriptional activity of the human estrogen receptor alpha (ESR1) and human estrogen receptor beta (ESR2) was assessed in transiently transfected SKBR3 cells using a synthetic reporter gene. […] DNA content as assessed by fluorescence was measured as a surrogate for cell proliferation. The relative increase in DNA fluorescence was calculated by normalizing to baseline values detected in a duplicate plate of cells that was harvested on day 1 prior to the initial treatment. […] For FIG. 5F, expression of ESR1 target genes in tumors was analyzed essentially as in (C).

Take `C[C@]12CC[C@@H]3c4ccc(O)cc4C[C@@H](CCCCCCCCC[S+]([O-])CCCC(F)(F)C(F)(F)F)[C@H]3[C@@H]1CC[C@@H]2O` (stereo partly shown) [ICI, ICI 182,780]: in the assay on MCF7 cells, the insulin-stimulated proliferation entry is reported as “efficiently inhibited”. The cell proliferation entry in the assay on LTED MCF7 cells is on record as “inhibited cell proliferation”. For the same compound, at ESR1, the ESR1 expression levels entry is reported as “downregulated ESR1 expression”. For 4-hydroxytamoxifen [4OHT], in the assay on MCF7 cells, the insulin-stimulated proliferation result is reported as “without effect”. For `O=C(c1ccc(OCCN2CCCCC2)cc1)c1c(-c2ccc(O)cc2)sc2cc(O)ccc12` [Ralox, raloxifene], the insulin-stimulated proliferation result in the assay on MCF7 cells is “without effect”. In the case of `CC/C(=C(\c1ccccc1)c1ccc(OCCN(C)C)cc1)c1ccccc1` [tamoxifen, reference compound], the “expression of ESR1-target genes PGR and FHL1 in treated tumors” value in the assay on MCF7 xenograft tumors was “suppress the expression of the ESR1-target genes PGR and FHL1 to the same degree”. Moreover, the cell proliferation result in the assay on LTED MCF7 cells is “minimally effective”.

The values are drawn from patent US10420734B2, “Method of treating cancer using selective estrogen receptor modulators” (Duke University, priority 2014, dated 2019).
